# Assay results: patent publication US6589504B1, “Compounds and methods for diagnosing and treating amyloid-related conditions” (Pharmacia & Upjohn Company, priority 2000, dated 2003)
# Where two headings read alike, the source gives them in different places.
# Key:
# [1] = target: T1, human β-amyloid containing plaques (Homo sapiens, UniProt P05067); assay: Determination of in vivo brain distribution (fluorescence of brain sections)
# T1 construct: from tissue; host or cells: brain of transgenic (Tg) mice carrying the human β-APP gene
# T1 sequence (P05067 672-713 limits assumed): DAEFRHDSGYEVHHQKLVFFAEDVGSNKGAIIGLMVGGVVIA
# Protocol: Transgenic mice, designated “Tg”, were obtained. The transgenic mice carry the human gene for β-APP, a gene associated with β-amyloid deposition in the brain. The mice were treated with.the quinolinehydrazone compound, 4-methyl-7-methoxy-2-(4-quinolylmethylhydrazino)quinoline. Dosing was administered either intravenously or orally. The intravenous dose was administered as a single injection (50 μmol/kg). Orally-treated animals received a single dose (400 μmol/kg) via oral gavage, or were dosed twice-a-day for 10 days (400 μmol/kg/dose/day).
# Age-matched normal mice served as a negative control, i.e. no plaque formation in the animals was indicated. The control mice were treated in the same manner as the transgenic mice, but with placebo.
# In addition, a group of age-matched Tg mice were treated with the carrier vehicle only.
# All animals were sacrificed beginning 1, 3 and 10 h after the final dose. Fresh brains of the animals were removed, bisected, and positioned in […] (OCT). The brains were immersed into 2-methylbutane, pre-cooled to […] with liquid nitrogen. The brains were cut into 20 μm thick sections at a temperature of −20° C. Brain sections were collected onto poly-L-lysine-coated glass microscopic slide and treated with (1 drop) of 75%, by volume (v/v), glycerin in […](PBS). […]
# The section adjacent to each compound-treated section of the brain was stained with thioflavin S (Sigma Chemicals, Milwaukee, Wis., U.S.A.). Sections stained with thioflavin S served as a positive control for identifying plaque. The distribution of compound-associated fluorescence was compared with the distribution of thioflavin S-stained section in order to confirm whether the compound bound plaque.
# All sections were examined 1 h later to assess artifactual drug diffusion within thawed sections over time.
# [2] = Dose-dependent pharmacokinetics: plasma and brain Cmax after oral dosing; type: in vivo; conditions: normal mice, 400 to 3,200 μmol/kg
# Protocol: Dose-proportionality characteristics were assessed by measuring the maximum concentration (Cmax) for plasma and brain concentrations after oral dosing of normal mice. […] Plasma and brain concentrations were measured by HPLC at 0.5 to 24 hours.
# [3] = In vivo determination of plasma and brain exposure (AUC) after oral dosing; conditions: normal mice; for Kp: brain/plasma
# Protocol: Plasma and brain exposure were assessed by measuring area under the curve (AUC) after oral dosing of normal mice.
# The brain to plasma ratios were calculated and reported below.
# The terminal half-life of compound in the brain was measured to determine the dosing frequency for 10-day tolerance studies. For the three highest doses, brain terminal half-life ranged from 5-7 h.
# [4] = target: T2, amyloid plaque in brains of Tg mice (Homo sapiens, UniProt P05067); assay: Postmortem staining of amyloid plaque in brain sections
# T2 construct: from tissue; host or cells: frozen, methanol-fixed brain sections of 12-14 month-old Tg mice
# T2 sequence (P05067 672-713 limits assumed): as above
# Protocol: Brains from 12-14 month-old Tg mice were frozen and sectioned at −20° C. Each section was fixed in ice cold methanol (Aldrich Chemical Co., Milwaukee, Wis.) for 10 minutes, rinsed in buffer and incubated in 4-methyl-7-methoxy-2-(4-quinolylmethylenehydrazino)quinoline for 90 minutes at room temperature. […] Fluorescence intensity in Tg mouse amyloid decreased with drug concentration. […] The […] mouse brains were confirmed to be plaque-free.
# Neuronal cells = assay: In vitro antioxidant effect, neuronal cytoprotection model; type: cell-based; conditions: 1, 3, 10, 30 and 100 μM, with and without ferrous ammonium sulfate, 3 hours, LC/MS
# Protocol: The 4-methyl-7-methoxy-2-(4-quinolylmethylene-hydrazino)quinoline was dissolved in 100×stock of aqueous Locke's buffer to obtain concentrations of 1, 3, 10, 30, and 100 μM solution. Neuronal cells were incubated in each compound solution with and without ferrous ammonium sulfate (200 μm) for 3 hours. High concentration supernatant was obtained from each sample. The samples were analyzed under liquid chromatography/mass spectrometry (LC/MS).
# [5] = test system: primary neuronal model of FAS-induced lipid peroxidation toxicity; assay: In vitro antioxidant effect, ferrous ammonium sulfate (FAS)-induced oxidative toxicity model; type: cell-based
# Protocol: The 4-methyl-7-methoxy-2-(4-quinolylmethylene-hydrazino)quinoline was tested in a primary neuronal model of FAS-induced lipid peroxidation toxicity. The compound was treated in two manners. In one manner, the compound was solubilized as 100×stock in 100% dimethyl sulfoxide (DMSO) to afford panel A. In another manner, the compound was solubilized in aqueous Locke's buffer to give panel B.
# [6] = test system: amyloid-like proteins with a beta-pleated sheet conformation; conditions: in vitro; cited from earlier work
# [7] = 30 and 100 μM, 1% DMSO experiments (panel A)
smiles,measurement,setting,value
COc1ccc2c(C)cc(NN=Cc3ccnc4ccccc34)nc2c1 [4-methyl-7-methoxy-2-(4-quinolylmethylenehydrazino)quinoline],plaque burden shown in brain sections compared with thioflavin S stained sections,[1]; Tg mice receiving the compound,marked plaque burden
same,drug-related fluorescence in brain sections in areas of plaque formation,"[1]; Tg mice, i.v. 50 μmol/kg or oral 400 μmol/kg, λex 365 nm, λem 400 nm",intense drug-related fluorescence
same,binding to plaques in vivo,"[1]; Tg mice, i.v. or oral dosing",preferentially binds to human β-amyloid containing plaques
same,brain penetration,"[1]; Tg mice, i.v. or oral dosing",brain penetrable
same,"Cmax for brain, dose proportionality",[2],increases proportionally
same,"Cmax for plasma, dose proportionality",[2],increases proportionally
same,Kp,"[3]; mouse, oral, dose 51 μmole/kg, read-out: B/P Ratio AUC",5.3
same,Kp,"[3]; mouse, oral, dose 208 μmole/kg, read-out: B/P Ratio AUC",3.2
same,Kp,"[3]; mouse, oral, dose 421 μmole/kg, read-out: B/P Ratio AUC",2.5
same,Kp,"[3]; mouse, oral, dose 831 μmole/kg, read-out: B/P Ratio AUC",5.7
same,Kp,"[3]; mouse, oral, dose 1472 μmole/kg, read-out: B/P Ratio AUC",5.7
same,Kp,"[3]; mouse, oral, dose 3024 μmole/kg, read-out: B/P Ratio AUC",7.3
same,Kp,"[3]; mouse, oral, over the dose range tested, read-out: brain levels relative to plasma levels, average",5
same,half-life,"[3]; mouse, brain, oral, three highest doses, read-out: brain terminal half-life",5 to 7 h
same,penetration to the brain tissue,[3]; oral,good penetration of the compound to the brain tissue
same,"plasma exposure, saturation","[3]; oral, 3,024 μmol/kg",evidence of saturation
same,"brain exposure, dose dependence","[3]; oral, 421 to 1,472 μmol/kg",increased more rapidly
same,"plasma exposure, dose proportionality","[3]; oral, 421 to 1,472 μmol/kg",increased proportionally
same,"localization of compound fluorescence, confirmed by thioflavin S staining of adjacent sections",[4]; Tg mouse brain sections,does localize in amyloid plaques
same,staining in brains of transgene-free mice,[4]; brain sections of transgene-free mice,not in brains of transgene-free mice
same,antioxidant effect,Neuronal cells,demonstrated antioxidant properties
same,"cell morphology, brightfield photographs",[5]; 10 μM + FAS cells versus control cells,no different than cells treated with no drug and no FAS
same,neuronal protection against FAS,"[5]; 10 μM compound, 200 μM FAS, 3 hours, 14C-AIB uptake or LDH release",close to or complete neuronal protection
same,drug toxicity to neuronal cells,"[5]; 30 μM, aqueous preparation (panel B)",much less drug toxicity
same,concentration range of concentration-dependent inhibition of FAS toxicity,"[5]; 200 μM FAS, 3 hours, 14C-AIB uptake or LDH release",0.3 to 10 µM
same,drug toxicity to neuronal cells,[5]; [7],inherent drug toxicity
same,neuronal protection against FAS,[5]; [7],no neuronal protection
same,neuronal protection against FAS,"[5]; 30 and 100 μM, aqueous preparation (panel B)",considerable neuronal protection
"Nc1c(N=Nc2ccc(-c3ccc(N=Nc4cc(S(=O)(=O)[O-])c5ccccc5c4N)cc3)cc2)cc(S(=O)(=O)[O-])c2ccccc12.[Na+].[Na+] [Congo red, 3,3′-[[1,1′-biphenyl]-4,4′-diylbis(azo)]bis[4-amino-1-naphthalenesulfonic acid] disodium salt]",binding to amyloid-like proteins,[6],demonstrated binding
